In patent EP4353225A1, “NUTRACEUTICAL OR PHARMACEUTICAL COMPOSITION FOR THE TREATMENT OF PELVIC PAIN” (Erbozeta S.p.A., priority 2022, dated 2024):

How the values were obtained:
[1] = test system: transcription factor Nf-kB; assay: Nuclear levels of transcription factor Nf-kB in T24 bladder urothelium cells exposed to THP-1 conditioned media; type: cell-based, human; details: T24 cells 4 h
Experimental: (§1) Based on the results of the cytotoxicity experiments, the medium conditioned on THP-1 to be used to study the possible anti-inflammatory activity on the bladder urothelium was obtained by exposing for 2 h the differentiated THP-1 cells to the concentrations of the three functional ingredients and the MIX corresponding to 600, 400, 200, 100, 50 and 25 µg/mL for the MICRONIZED PEA, 15, 10, 5, 2.5, 1.25, 0.625 µg/mL for the DRY MARITIME PINE EXTRACT, 75, 50, 25, 12.5, 6.25, 3.125 µg/mL for HEMP OIL and 690, 460, 230, 115, 57.5 and 28.75 µg/mL for the MIX, respectively. At the end of this incubation, the cells were treated for a further 6 h with the inflammatory stimulus E. coli in the presence of the different treatments. Cells exposed only with the inflammatory stimulus in the absence of pre-treatment were used as a positive control of inflammation.
(§2) The specific anti-inflammatory activity on the bladder urothelium of the three functional ingredients and the MIX was evaluated on an in vitro bladder urothelium epithelium composed of the T24 cell line (ATCC HTB-4TM). T24 cells were exposed for 4 h to conditioned media obtained by treating THP-1 cells differentiated into macrophages with different concentrations of the functional ingredients and MIX, and in the presence of E. coli. At the end of treatment, T24 cells were detached with trypsin, centrifuged, and lysed by sonication in lysis buffer. The supernatant obtained following centrifugation at 10,000 g for 10 min at 4 °C was stored at -80 °C. An extended analysis of the impact of functional ingredients and MIX on inflammation was performed using an assay for the determination of the transcription factor Nf-kB (Abcam) and the evaluation of the expression of pro-inflammatory cytokines with an array of 23 human cytokines (Raybiotech), following the manufacturer's instructions. The cytokines interleukin 1β (IL-1β), interleukin 6 (IL-6), and interleukin 8 (IL-8) were quantified by ELISA assay.
(§3) The results are reported expressed as fold change, calculated as the ratio between the values obtained from the respective treatments on the control of inflammation. As such, the fold change is adimensional.

[2] = test system: THP-1 differentiated into macrophages; assay: Cytotoxicity / cell viability of differentiated THP-1 in the presence of E. coli (ATP assay); type: cell-based; details: 2 h pre-treatment + 6 h E. coli
Experimental: Human THP-1 monocytes (ATCC® TIB-202TM) were maintained in THP-1 complete medium (THP-1 CCM) and cultured in a controlled atmosphere at 37 °C. Differentiation into macrophages was induced by incubation with phorbol myristate acetate (PMA) for 24 h. The culture medium was then replaced and the cells left with fresh medium for another 24 h before being exposed to the three functional ingredients, their MIX and the inflammatory stimulus, E. coli.
The cytotoxicity of the three functional ingredients and their MIX was evaluated on a THP-1 immune system model differentiated into macrophages. Based on the method of intake of the formulation, a digestion volume of 2 liters was considered in order to mimic as much as possible the physiological condition of the average volume of liquid contained in the stomach during the digestive process. Cytotoxicity was carried out by constructing a dose-response curve at increasing concentrations of the individual functional ingredients and the MIX in order to identify the maximum concentration usable for subsequent tests. The following concentrations were therefore tested on THP-1: from 50 µg/mL to 600 µg/mL for PEA, from 1.25 µg/mL to 15 µg/mL for DRY MARITIME PINE EXTRACT, from 6.25 µg/mL to 75 µg/mL for HEMP OIL and from 57.5 µg/mL to 690 µg/mL for the MIX. Based on the results of the dose-response curves, cell viability analysis was not performed at higher concentrations due to mortality caused by the mixture at the highest concentration tested. The concentrations used for subsequent experiments were selected in this concentration range. The three functional ingredients and the MIX were dissolved in THP-1 CCM in the absence of antibiotic and in the presence of 1.18 mg/mL of bile as surfactant. The suspensions were incubated under stirring overnight to increase the passage of the functional ingredients into solution and, the following day, the THP-1 cells were washed with Hank's Balanced Salt Solution (HBSS) and pre-treated for 2 h with the different concentrations of the individual functional ingredients and the MIX. At the end of this incubation, the pro-inflammatory stimulus E. coli (1 × 10^6 CFU/mL) was added to the treated cells for a further 6 h. Cells treated only with E. coli were used as a negative control, while cells treated with 10 µM staurosporine were used as a positive cell death control. At the end of the 8 h of treatment, cell viability was assessed by ATP assay (PerkinElmer) to avoid any possible interference from the bacteria present that may occur using other tests such as MTS.

GM-CSF = assay: Cytokine array (23 human cytokines) in T24 bladder urothelium cells exposed to THP-1 conditioned media: GM-CSF; type: cell-based; details: T24 cells 4 h
Experimental: as §1, §2, §3

GRO a/b/g = assay: Cytokine array (23 human cytokines) in T24 bladder urothelium cells exposed to THP-1 conditioned media: GRO a/b/g; type: cell-based; details: T24 cells 4 h
Experimental: as §1, §2, §3

IL-8 = assay: ELISA of IL-8 in T24 bladder urothelium cells exposed to THP-1 conditioned media; type: cell-based, human; details: T24 cells 4 h
Experimental: as §1, §2, §3

GRO alpha = assay: Cytokine array (23 human cytokines) in T24 bladder urothelium cells exposed to THP-1 conditioned media: GRO alpha; type: cell-based; details: T24 cells 4 h
Experimental: as §1, §2, §3

IL-6 = assay: ELISA of IL-6 in T24 bladder urothelium cells exposed to THP-1 conditioned media; type: cell-based, human; details: T24 cells 4 h
Experimental: as §1, §2, §3

IL-1β = assay: ELISA of IL-1β in T24 bladder urothelium cells exposed to THP-1 conditioned media; type: cell-based, human; details: T24 cells 4 h
Experimental: as §1, §2, §3

[3] = Condition 1: MICRONIZED PEA 600, MARITIME PINE EXTRACT 15, HEMP OIL 75, MIX 690 µg/mL (1200, 30, 150, 1380 mg)
[4] = Condition 2: MICRONIZED PEA 400, MARITIME PINE EXTRACT 10, HEMP OIL 50, MIX 460 µg/mL (800, 20, 100, 920 mg)
[5] = Condition 3: MICRONIZED PEA 200, MARITIME PINE EXTRACT 5, HEMP OIL 25, MIX 230 µg/mL (400, 10, 50, 460 mg)
[6] = Condition 4: MICRONIZED PEA 100, MARITIME PINE EXTRACT 2.5, HEMP OIL 12.5, MIX 115 µg/mL (200, 5, 25, 230 mg)
[7] = Condition 5: MICRONIZED PEA 50, MARITIME PINE EXTRACT 1.25, HEMP OIL 6.25, MIX 57.5 µg/mL (100, 2.5, 12.5, 115 mg)
[8] = Condition 6: MICRONIZED PEA 25, MARITIME PINE EXTRACT 0.625, HEMP OIL 3.125, MIX 28.75 µg/mL (50, 1.25, 6.25, 57.5 mg)

## CCCCCCCCCCCCCCCC(=O)NCCO [MICRONIZED PEA, palmitoylethanolamide]
[1]; [3]
  Nf-kB (Fold change vs Control) Average: 2.89 Fold change
[1]; [4]
  Nf-kB (Fold change vs Control) Average: 6.16 Fold change
[1]; [5]
  Nf-kB (Fold change vs Control) Average: 0.12 Fold change
[1]; [6]
  Nf-kB (Fold change vs Control) Average: 0.75 Fold change
[1]; [7]
  Nf-kB (Fold change vs Control) Average: 0.57 Fold change
[1]; [8]
  Nf-kB (Fold change vs Control) Average: 0.43 Fold change
[1]; result in words, over the concentrations tested
  Nf-kB levels (nuclear translocation): reduces the nuclear translocation of the transcription factor NF-κB starting from 25 µg/mL (50 mg) up to 200 µg/mL (400 mg)
[2]; MICRONIZED PEA 50 µg/mL (100 mg)
  Viability: 73.2 ± 9.5%
[2]; MICRONIZED PEA 100 µg/mL (200 mg)
  Viability: 106.5 ± 5.6%
[2]; MICRONIZED PEA 300 µg/mL (600 mg)
  Viability: 86.5 ± 5.9%
[2]; MICRONIZED PEA 500 µg/mL (1000 mg)
  Viability: 71.9 ± 1.3%
[2]; MICRONIZED PEA 600 µg/mL (1200 mg)
  Viability: 73.9 ± 19.5%
GM-CSF; [3]
  GM-CSF fold change vs control: 1.01 Fold change
GM-CSF; [4]
  GM-CSF fold change vs control: 1.1 Fold change
GM-CSF; [5]
  GM-CSF fold change vs control: 0.9 Fold change
GM-CSF; [6]
  GM-CSF fold change vs control: 0.21 Fold change
GM-CSF; [7]
  GM-CSF fold change vs control: 1.15 Fold change
GM-CSF; [8]
  GM-CSF fold change vs control: 1.19 Fold change
GRO a/b/g; [3]
  GRO a/b/g (Fold change vs Control) Average: 1.14 Fold change
GRO a/b/g; [4]
  GRO a/b/g (Fold change vs Control) Average: 0.92 Fold change
GRO a/b/g; [5]
  GRO a/b/g (Fold change vs Control) Average: 0.81 Fold change
GRO a/b/g; [6]
  GRO a/b/g (Fold change vs Control) Average: 0.58 Fold change
GRO a/b/g; [7]
  GRO a/b/g (Fold change vs Control) Average: 1 Fold change
GRO a/b/g; [8]
  GRO a/b/g (Fold change vs Control) Average: 1.13 Fold change
IL-8; [3]
  IL-8 (Fold change vs Control) Average: 0.55 Fold change
IL-8; [4]
  IL-8 (Fold change vs Control) Average: 0.49 Fold change
IL-8; [5]
  IL-8 (Fold change vs Control) Average: 0.51 Fold change
IL-8; [6]
  IL-8 (Fold change vs Control) Average: 0.54 Fold change
IL-8; [7]
  IL-8 (Fold change vs Control) Average: 0.68 Fold change
IL-8; [8]
  IL-8 (Fold change vs Control) Average: 0.69 Fold change
GRO alpha; [3]
  GRO alpha (Fold change vs Control) Average: 1.49 Fold change
GRO alpha; [4]
  GRO alpha (Fold change vs Control) Average: 0.79 Fold change
GRO alpha; [5]
  GRO alpha (Fold change vs Control) Average: 1.28 Fold change
GRO alpha; [6]
  GRO alpha (Fold change vs Control) Average: 1.23 Fold change
GRO alpha; [7]
  GRO alpha (Fold change vs Control) Average: 0.91 Fold change
GRO alpha; [8]
  GRO alpha (Fold change vs Control) Average: 1.17 Fold change
IL-6; [3]
  IL-6 (Fold change vs Control) Average: 0.48 Fold change
IL-6; [4]
  IL-6 (Fold change vs Control) Average: 0.34 Fold change
IL-6; [5]
  IL-6 (Fold change vs Control) Average: 0.34 Fold change
IL-6; [6]
  IL-6 (Fold change vs Control) Average: 0.33 Fold change
IL-6; [7]
  IL-6 (Fold change vs Control) Average: 0.38 Fold change
IL-6; [8]
  IL-6 (Fold change vs Control) Average: 0.45 Fold change
IL-1β; [3]
  IL-1β (Fold change vs Control) Average: 0.14 Fold change
IL-1β; [4]
  IL-1β (Fold change vs Control) Average: 0.25 Fold change
IL-1β; [5]
  IL-1β (Fold change vs Control) Average: 0.15 Fold change
IL-1β; [6]
  IL-1β (Fold change vs Control) Average: 0.25 Fold change
IL-1β; [7]
  IL-1β (Fold change vs Control) Average: 0.30 Fold change
IL-1β; [8]
  IL-1β (Fold change vs Control) Average: 0.30 Fold change
